According to publication PMC10824102, “Identification of small molecule inhibitors of G3BP-driven stress granule formation” (The Journal of Cell Biology, 2024):

What was measured:
[1] = target: T1, NTF2L domain of G3BP1 (GFP-NTF2L) interaction with caprin 1 and USP10 (Homo sapiens, UniProt Q13283); test: Coimmunoprecipitation of GFP-NTF2L with caprin 1 and USP10 in HEK293T lysates; assay type: biochemical; conditions: 25 and 50 μM, GFP IP
T1 construct: lysates expressing the NTF2L domain of G3BP1 (GFP-NTF2L); expressed in transfected cells; host or cells: HEK293T cells expressing GFP-NTF2L (lysate)

[2] = target: T2, condensate formation by G3BP1 and RNA (Homo sapiens, UniProt Q13283); test: In vitro LLPS, two-component system (G3BP1 and RNA); assay type: biochemical; conditions: 20 μM G3BP1, 100 ng RNA, up to 166 μM compound
T2 construct: made in house; host or cells: E. coli BL21 (DE3)
Procedure: LLPS assays were performed in 30 μl total volume at 25°C at pH 7.4 in buffer containing 37 mM Tris, pH 7.5, 116 mM NaCl, 0.33% NP-40, 2.6% glycerol, 0.5 mM DTT with 20 ng/μl total cellular RNA from U2OS cells and 1.425 μM G3BP1, 0.075 μM FLAG-GFP-G3BP1, and 1.5 μM caprin 1. Reactions were initiated by adding G3BP1/caprin 1 protein mix to cellular RNA, followed by 3 min of shaking at 450 rpm and then incubation for 70 min in the dark. For condensates formed with G3BP1 and RNA, 20 μM purified G3BP1 and 100 ng of total cellular RNA from HEK293T cells were added to a buffer consisting of 100 mM NaCl and 16.7 mM HEPES (pH 7.5) in the presence of the indicated dose of G3Ib or vehicle control.

T1 sequence (Q13283 11-133 limits assumed): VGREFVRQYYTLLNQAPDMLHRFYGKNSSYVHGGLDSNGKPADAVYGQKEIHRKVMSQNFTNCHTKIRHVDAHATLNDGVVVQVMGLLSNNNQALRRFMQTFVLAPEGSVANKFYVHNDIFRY
T2 sequence (Q13283 whole entry): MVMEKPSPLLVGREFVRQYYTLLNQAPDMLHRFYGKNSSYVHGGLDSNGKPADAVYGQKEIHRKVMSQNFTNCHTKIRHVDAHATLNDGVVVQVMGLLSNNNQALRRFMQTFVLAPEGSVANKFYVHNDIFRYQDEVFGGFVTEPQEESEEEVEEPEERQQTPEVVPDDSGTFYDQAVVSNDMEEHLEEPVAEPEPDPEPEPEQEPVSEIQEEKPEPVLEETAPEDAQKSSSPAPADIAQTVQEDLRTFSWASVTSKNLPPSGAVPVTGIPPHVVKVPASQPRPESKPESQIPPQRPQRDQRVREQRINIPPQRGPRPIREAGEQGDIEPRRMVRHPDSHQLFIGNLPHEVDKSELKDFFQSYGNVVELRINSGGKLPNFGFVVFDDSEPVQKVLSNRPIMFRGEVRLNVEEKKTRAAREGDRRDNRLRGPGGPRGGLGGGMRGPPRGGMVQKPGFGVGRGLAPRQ

CC(NC(=O)C(NC(=O)C(NC(=O)CCC(C)(C)C)C(C)(C)O)C(C)c1ccccc1)C(=O)N1CCCC1c1ccccc1 (centres unmarked) [G3Ib]
interaction of NTF2L domain with caprin 1 and USP10 [1]: dose-dependent reduction
condensate formation by G3BP1 and RNA [2]: unaffected
